The target of assay [1] is T1, Endoribonuclease toxin MazF (Escherichia coli K-12, UniProt P0AE70).
T1 sequence (P0AE70 whole entry): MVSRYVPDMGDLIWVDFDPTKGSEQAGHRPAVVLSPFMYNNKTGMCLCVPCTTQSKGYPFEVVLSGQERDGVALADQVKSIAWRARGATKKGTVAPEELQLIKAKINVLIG
Kind of assay: SAR analysis of small molecule activators of the MazEF TA System via a fluorescence-based single-stranded RNase assay counterscreen. [Related pubchem assays (depositor defined):AID504720, AID504743]. Type of assay: functional.

In a further assay the test system is MEF. Kind of assay: SAR analysis of small molecule cytotoxicity of MazEF TA System activators in embryonic fibroblast (MEF) cells. [Related pubchem assays (depositor defined):AID504720, AID504743]. Type of assay: functional. The note with it: Mus musculus.
For assay [2], the target named is T1, Endoribonuclease toxin MazF. Kind of assay: MazEF toxin-antitoxin RNase activation – biochemical, fluorescence, single-stranded RNA substrate, SAR follow-up (AID 588603). Type of assay: functional.
For assay [3] the target is unchanged. In words: substrate-only fluorescence increase artefacts – biochemical, single-stranded RNase substrate, counter-screen for MazEF activator project, dose response (AID 588502). Format: functional. (The purpose of a counterscreen is to sort out artefacts and off-target activity.)
The target is the same in assay [4]. Kind of assay: activation of MazEF endoribonuclease cleavage – biochemical, fluorescence, single-stranded RNA substrate, uHTS hits, dose response (AID 588481). Type of assay: functional.
Assay [5] addresses T2, Sentrin-specific protease 7 (Homo sapiens, UniProt Q9BQF6).
T2 sequence (Q9BQF6 whole entry): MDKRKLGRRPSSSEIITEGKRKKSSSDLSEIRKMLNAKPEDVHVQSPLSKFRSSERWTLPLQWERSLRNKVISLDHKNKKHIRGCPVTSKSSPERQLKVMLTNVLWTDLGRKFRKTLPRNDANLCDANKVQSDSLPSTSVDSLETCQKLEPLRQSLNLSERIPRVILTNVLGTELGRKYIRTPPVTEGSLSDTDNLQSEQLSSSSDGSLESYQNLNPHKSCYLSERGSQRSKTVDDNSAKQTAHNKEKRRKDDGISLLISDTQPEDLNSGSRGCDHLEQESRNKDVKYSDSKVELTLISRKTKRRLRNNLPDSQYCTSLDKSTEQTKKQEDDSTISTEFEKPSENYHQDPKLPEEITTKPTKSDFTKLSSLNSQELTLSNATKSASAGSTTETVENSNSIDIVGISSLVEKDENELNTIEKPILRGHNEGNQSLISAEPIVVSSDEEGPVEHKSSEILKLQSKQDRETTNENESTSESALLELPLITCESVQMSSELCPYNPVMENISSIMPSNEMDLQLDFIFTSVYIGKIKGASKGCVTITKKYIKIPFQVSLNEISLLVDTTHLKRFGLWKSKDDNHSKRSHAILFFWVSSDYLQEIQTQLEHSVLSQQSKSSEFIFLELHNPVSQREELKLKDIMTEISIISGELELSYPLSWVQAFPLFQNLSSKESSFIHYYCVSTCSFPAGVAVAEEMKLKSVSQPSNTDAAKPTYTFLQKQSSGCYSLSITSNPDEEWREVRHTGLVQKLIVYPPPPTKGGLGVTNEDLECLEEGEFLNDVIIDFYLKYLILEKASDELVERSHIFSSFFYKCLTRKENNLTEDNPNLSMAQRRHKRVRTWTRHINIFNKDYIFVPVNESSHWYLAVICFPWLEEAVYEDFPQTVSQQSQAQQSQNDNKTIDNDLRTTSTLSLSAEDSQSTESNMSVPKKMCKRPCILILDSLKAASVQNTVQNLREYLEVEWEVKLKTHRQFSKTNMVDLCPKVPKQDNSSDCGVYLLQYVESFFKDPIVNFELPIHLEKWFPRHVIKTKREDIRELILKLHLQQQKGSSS
Kind of assay: inhibition of human SENP7 cleavage activity – biochemical, luminescence, set 2, SAR follow-up (AID 588600). Type of assay: functional.

The target in assay [6] is T2, Sentrin-specific protease 7. In words: inhibition of human SENP7 cleavage activity – biochemical, luminescence, SAR follow-up (AID 504497). Type of assay: functional.
The target of assay [7] is T3, Sentrin-specific protease 8 (Homo sapiens, UniProt Q96LD8).
T3 sequence (Q96LD8 whole entry): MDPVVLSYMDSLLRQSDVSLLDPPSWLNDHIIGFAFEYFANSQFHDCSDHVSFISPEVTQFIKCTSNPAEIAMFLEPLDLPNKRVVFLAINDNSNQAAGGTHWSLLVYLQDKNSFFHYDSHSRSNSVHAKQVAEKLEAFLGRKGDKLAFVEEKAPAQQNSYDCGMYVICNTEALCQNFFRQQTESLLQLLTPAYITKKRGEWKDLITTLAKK
Kind of assay: inhibition of human SENP8 cleavage activity – biochemical, luminescence, SAR follow-up (AID 504501). Format: functional.

Assay [8] deals with T3, Sentrin-specific protease 8. Kind of assay: inhibition of sentrin protease 8 – biochemical, luminescence, set 2, SAR follow-up (AID 588601). Format: functional.
Assay [9] concerns the target T4, Sentrin-specific protease 6 (Homo sapiens, UniProt Q9GZR1).
T4 sequence (Q9GZR1 whole entry): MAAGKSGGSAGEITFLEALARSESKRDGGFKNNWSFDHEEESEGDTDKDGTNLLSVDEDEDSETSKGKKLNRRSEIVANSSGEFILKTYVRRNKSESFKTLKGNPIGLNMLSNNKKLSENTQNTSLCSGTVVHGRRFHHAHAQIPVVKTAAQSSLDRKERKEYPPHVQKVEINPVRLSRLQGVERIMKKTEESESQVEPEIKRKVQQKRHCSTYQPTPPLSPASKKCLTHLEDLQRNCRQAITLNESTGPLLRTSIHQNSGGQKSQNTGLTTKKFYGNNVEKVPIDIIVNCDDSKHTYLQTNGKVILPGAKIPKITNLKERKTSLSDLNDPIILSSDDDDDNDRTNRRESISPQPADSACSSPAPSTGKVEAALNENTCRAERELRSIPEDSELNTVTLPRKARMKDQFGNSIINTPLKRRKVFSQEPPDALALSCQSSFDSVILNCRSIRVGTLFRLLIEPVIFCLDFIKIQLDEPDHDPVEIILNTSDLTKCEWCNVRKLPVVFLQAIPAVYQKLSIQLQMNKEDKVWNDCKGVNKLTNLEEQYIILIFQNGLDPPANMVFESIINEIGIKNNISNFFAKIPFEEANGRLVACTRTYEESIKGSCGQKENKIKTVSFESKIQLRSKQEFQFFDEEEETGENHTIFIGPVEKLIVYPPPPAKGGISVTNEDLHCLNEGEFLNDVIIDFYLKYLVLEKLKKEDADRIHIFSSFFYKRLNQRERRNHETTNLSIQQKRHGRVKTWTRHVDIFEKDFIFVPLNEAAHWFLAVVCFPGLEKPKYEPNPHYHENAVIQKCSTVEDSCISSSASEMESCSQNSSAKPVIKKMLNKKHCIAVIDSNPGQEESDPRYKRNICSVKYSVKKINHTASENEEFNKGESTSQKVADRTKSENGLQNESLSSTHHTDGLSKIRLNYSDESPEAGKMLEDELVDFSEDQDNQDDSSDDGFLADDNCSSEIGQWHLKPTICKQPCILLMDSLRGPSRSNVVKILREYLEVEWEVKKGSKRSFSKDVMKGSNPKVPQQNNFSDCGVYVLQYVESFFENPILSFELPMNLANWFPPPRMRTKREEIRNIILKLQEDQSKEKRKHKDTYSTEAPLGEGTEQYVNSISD
Kind of assay: SAR Analysis of small molecule inhibitors of Sentrin-specific protease 6 (SENP6) using a Luminescent assay. [Related pubchem assays (depositor defined):AID2582, AID2599]. Format: functional.

Assay [10] concerns the target T5, Caspase-3 (Homo sapiens, UniProt P42574).
T5 sequence (P42574 whole entry): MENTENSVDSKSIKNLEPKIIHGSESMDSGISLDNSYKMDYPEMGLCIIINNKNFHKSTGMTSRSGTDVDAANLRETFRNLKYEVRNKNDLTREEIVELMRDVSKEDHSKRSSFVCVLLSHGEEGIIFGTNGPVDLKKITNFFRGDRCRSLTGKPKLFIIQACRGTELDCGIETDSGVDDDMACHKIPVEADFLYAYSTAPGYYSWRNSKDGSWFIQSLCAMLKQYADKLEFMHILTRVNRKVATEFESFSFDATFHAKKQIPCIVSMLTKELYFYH
In words: SAR Analysis of small molecule inhibitors of Sentrin-specific proteases (SENPs) using a Caspase-3 Selectivity assay. [Related pubchem assays (depositor defined):AID2540, AID2599, AID434973, AID489001]. Type of assay: functional.

Assay [11] deals with T5, Caspase-3. Kind of assay: inhibition of recombinant caspase-3 activity – biochemical, luminescence, set 2, selectivity assay for SENP protease inhibitor project, SAR follow-up (AID 588599). Type of assay: functional.
Assay [12] concerns the target T4, Sentrin-specific protease 6. In words: inhibition of human SENP6 catalytic domain – biochemical, luminescence, set 2, SAR follow-up (AID 588598). Type of assay: functional.
The subject of a further assay is Vero. In words: Vero E6 cell cytotoxicity, dose response, cytotoxicity control (AID 540298). The conditions noted are these: Chlorocebus sabaeus. Format: functional.
In a further assay the target is Nonstructural protein 1 (Influenza A virus, UniProt Q194T2). Format: functional, Influenza A virus (A/California/07/2009(H1N1)).
Nonstructural protein 1, sequence (Q194T2 whole entry): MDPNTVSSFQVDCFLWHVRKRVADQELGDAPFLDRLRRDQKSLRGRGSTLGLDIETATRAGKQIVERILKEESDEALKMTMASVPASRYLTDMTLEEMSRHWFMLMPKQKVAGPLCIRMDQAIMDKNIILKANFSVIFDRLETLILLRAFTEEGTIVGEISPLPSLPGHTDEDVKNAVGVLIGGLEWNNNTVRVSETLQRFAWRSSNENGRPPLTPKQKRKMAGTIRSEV
The test system of assay [13] is MDCK. Kind of assay: MDCK cell cytotoxicity, dose response, cytotoxicity control (AID 540296). The note with it: Canis lupus familiaris. Type of assay: functional.
In assay [14] the test system is MDCK. In words: antiviral activity against H1N1 influenza, dose response, cell-based, strain KY136 (AID 540257). Type of assay: functional. The conditions noted are these: Canis lupus familiaris.
Assay [15] addresses T6, Tyrosyl-DNA phosphodiesterase 2 (Homo sapiens, UniProt O95551).
T6 sequence (O95551 whole entry): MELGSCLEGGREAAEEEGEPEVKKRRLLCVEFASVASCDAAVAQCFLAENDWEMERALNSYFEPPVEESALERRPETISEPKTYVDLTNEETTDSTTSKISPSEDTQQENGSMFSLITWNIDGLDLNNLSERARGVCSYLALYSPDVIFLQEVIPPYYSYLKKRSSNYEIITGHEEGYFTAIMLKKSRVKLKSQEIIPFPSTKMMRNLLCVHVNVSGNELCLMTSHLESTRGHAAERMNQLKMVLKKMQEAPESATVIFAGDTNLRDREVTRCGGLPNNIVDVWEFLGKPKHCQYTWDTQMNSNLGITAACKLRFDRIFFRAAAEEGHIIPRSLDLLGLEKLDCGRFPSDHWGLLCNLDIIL
Kind of assay: potency against TDP2 phosphodiesterase activity – biochemical, epi absorbance, IC50, dose response (AID 743297).

A further assay has as its target Hexokinase HKDC1 (Homo sapiens, UniProt Q2TB90). Kind of assay: inhibition of HKDC1 glucose phosphorylation – biochemical, W721R variant, dose response (AID 504729). Format: functional.
Assay [16] deals with T7, Carboxy-terminal domain RNA polymerase II polypeptide A small phosphatase 1 (Homo sapiens, UniProt Q9GZU7).
T7 sequence (Q9GZU7 whole entry): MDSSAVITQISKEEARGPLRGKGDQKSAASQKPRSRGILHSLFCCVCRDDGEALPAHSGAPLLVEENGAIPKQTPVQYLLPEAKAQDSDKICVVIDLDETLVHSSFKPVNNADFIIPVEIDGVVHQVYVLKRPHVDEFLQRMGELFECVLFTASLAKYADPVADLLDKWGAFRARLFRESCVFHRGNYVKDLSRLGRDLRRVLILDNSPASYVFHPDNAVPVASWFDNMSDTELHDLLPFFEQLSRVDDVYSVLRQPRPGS
Kind of assay: CTDSP1 inhibitors, concentration-response, biochemical, absorbance readout, ultra-high-throughput screen actives (AID 540297). Format: functional.

The target in assay [17] is Beta-adrenergic receptor kinase 1 (Homo sapiens, UniProt P25098). Kind of assay: aptamer displacement from bead-bound GRK2 – biochemical, cherry pick 1, bead flow cytometry, dose response (AID 504500). In general terms: In flow cytometry, cells or beads pass a laser one at a time.
Beta-adrenergic receptor kinase 1, sequence (P25098 whole entry): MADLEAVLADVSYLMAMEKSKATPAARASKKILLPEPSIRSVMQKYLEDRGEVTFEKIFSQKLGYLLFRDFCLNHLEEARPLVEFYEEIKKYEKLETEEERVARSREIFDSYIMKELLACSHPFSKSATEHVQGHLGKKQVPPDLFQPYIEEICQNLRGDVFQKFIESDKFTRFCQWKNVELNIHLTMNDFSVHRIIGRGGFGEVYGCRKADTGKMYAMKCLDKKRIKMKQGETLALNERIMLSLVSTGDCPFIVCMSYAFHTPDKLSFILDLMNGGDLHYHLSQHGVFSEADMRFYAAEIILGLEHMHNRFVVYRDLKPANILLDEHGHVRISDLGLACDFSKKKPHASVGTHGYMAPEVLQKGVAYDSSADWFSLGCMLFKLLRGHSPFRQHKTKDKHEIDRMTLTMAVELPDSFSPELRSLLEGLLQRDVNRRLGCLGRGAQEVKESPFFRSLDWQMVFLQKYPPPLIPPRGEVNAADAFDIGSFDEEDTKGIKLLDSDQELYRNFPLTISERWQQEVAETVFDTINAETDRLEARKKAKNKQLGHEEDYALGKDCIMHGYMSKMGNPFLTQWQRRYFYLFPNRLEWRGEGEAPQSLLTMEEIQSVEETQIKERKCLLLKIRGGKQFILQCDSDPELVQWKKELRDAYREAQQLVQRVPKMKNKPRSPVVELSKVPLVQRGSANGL

This is an account of results in ChEMBL document CHEMBL1201862, “PubChem BioAssay data set” (2004).

Values joined by “and” are separate entries in the source; they are usually repeats but may differ in a detail not shown here. Equal entries are not always repeated. Active and inactive are the calls of the source. A value given as a limit tells only on which side of the number the result lay.

Hexokinase HKDC1, sequence (Q2TB90 whole entry, the tested form may be a part): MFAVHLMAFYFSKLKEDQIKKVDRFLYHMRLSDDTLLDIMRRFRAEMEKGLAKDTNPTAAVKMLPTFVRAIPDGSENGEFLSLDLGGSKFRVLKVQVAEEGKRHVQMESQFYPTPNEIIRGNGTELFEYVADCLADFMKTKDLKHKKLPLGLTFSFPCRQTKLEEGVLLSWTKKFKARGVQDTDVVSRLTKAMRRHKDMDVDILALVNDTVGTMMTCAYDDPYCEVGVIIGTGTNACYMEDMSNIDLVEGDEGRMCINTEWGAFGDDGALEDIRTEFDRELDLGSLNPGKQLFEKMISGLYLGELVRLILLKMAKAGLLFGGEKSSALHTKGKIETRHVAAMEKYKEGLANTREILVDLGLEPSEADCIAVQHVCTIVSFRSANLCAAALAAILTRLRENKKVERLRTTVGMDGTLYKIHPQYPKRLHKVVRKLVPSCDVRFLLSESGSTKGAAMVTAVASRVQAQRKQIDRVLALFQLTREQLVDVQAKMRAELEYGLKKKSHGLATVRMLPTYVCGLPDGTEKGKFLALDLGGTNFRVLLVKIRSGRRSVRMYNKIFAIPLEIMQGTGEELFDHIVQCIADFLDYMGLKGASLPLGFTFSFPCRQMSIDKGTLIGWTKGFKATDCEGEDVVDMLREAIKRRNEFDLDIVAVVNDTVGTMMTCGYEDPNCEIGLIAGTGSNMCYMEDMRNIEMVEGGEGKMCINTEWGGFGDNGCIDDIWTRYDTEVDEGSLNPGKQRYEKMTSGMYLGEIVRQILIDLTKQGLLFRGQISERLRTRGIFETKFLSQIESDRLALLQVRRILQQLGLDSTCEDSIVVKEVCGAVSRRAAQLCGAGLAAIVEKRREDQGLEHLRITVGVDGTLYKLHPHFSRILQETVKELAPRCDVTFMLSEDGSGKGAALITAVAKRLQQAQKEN

Consider `O=C(C1=NN[C@@H]2C(=O)N(c3cccc(F)c3)C(=O)[C@H]12)c1ccc2ccccc2n1`, for which the EC50 was > 99 µM (inactive) in assay [1], 24.4 µM (inactive) in assay [2], > 99 µM (inactive) in [3] and 20.5 µM (inactive) in assay [4]. The CC50 in the assay with MEF is > 99 µM (inactive).
On to `CCCCc1ccc2nc(NC(=O)c3ccco3)sc2c1`, for which the IC50 in [5] was 3.3 µM (active); in [6], 1.6 µM (active); in assay [7] it was 2 µM (active); in [8], 2.95 µM (active); in [9], 1.8 µM (active); at Caspase-3 [10], 4 µM (active). Moreover, the results for the half-inhibitory concentration (IC50) (at Caspase-3 [11]; in assay [12]) were 3.36 µM (active) and 2.89 µM (active), respectively.
Turning to `Fc1ccc(-[n+]2nc(Nc3ccccc3)sc2-c2c(Cl)cccc2Cl)cc1`, the figures for the CC50 in the assay with Vero and with MDCK [13] were 23.2 µM (active) and 11.6 µM (active), respectively. Moreover, the IC50 at Nonstructural protein 1 is 51.2 µM (active); in the assay with MDCK [14], > 100 µM (active).
For `O=C(O)c1ccccc1-c1c2cc(I)c(=O)c(I)c-2oc2c(I)c(O)c(I)cc12`, the IC50 on Nonstructural protein 1 is 19.4 µM (active); in assay [15], > 14.3 µM (inactive) and 35.7 µM (inactive); on Hexokinase HKDC1, 14.4 µM (active); in assay [16] it was 1.89 µM (active). Moreover, the EC50 in assay [17] is 14.7 µM (inactive).

A word on the EC50: it is the concentration giving half of the maximal effect. Broadly, the CC50 is the concentration that lowers cell viability or growth by half. Broadly, the IC50 is the concentration that gives 50% inhibition.
